Source: ChEMBL document CHEMBL5500358, “Identification of CH2-linked quinolone-aminopyrimidine hybrids as potent anti-MRSA agents: Low resistance potential and lack of cross-resistance with fluoroquinolone antibiotics” (Eur J Med Chem, 2024)
In brackets after ≈: the same amount, converted by molar mass.

Columns and labels:
[1] = Metabolic stability in human liver microsomes assessed as liver intrinsic clearance at 1 uM by LC-MS/MS analysis; type: ADME, Microsome; settings: read-out: CLH
[2] = Metabolic stability in rat liver microsomes assessed as liver intrinsic clearance at 1 uM by LC-MS/MS analysis; type: ADME, Microsome; settings: read-out: CLH
Staphylococcus aureus [3] = assay: Antibacterial activity against fluoroquinolone/methicillin resistant Staphylococcus aureus Mu50 incubated for 16 to 18 hrs by absorbance based analysis; type: functional; settings: time 16-18 hrs
[4] = Metabolic stability in human liver microsomes assessed as elimination half life at 1 uM by LC-MS/MS analysis; type: ADME, Microsome; settings: read-out: beta t1/2
[5] = Metabolic stability in human liver microsomes assessed as drug elimination rate constant at 1 uM by LC-MS/MS analysis; type: ADME, Microsome
Staphylococcus aureus [6] = assay: Antibacterial activity against fluoroquinolone-sensitive methicillin resistant Staphylococcus aureus ATCC 33591 incubated for 16 to 18 hrs by absorbance based analysis; type: functional; settings: time 16-18 hrs
[7] = Clearance in male Sprague-Dawley rat at 10 mg/kg, iv administered as single dose and measured upto 24 hrs by LC-MS/MS analysis; type: ADME, organism-based; settings: in vivo
[8] = Acute toxicity in ICR mouse assessed as abnormal behaviors at 400 to 2000 mg/kg, po administered as single dose via oral gavage and measured for 8 days; type: organism-based; settings: in vivo, 192 h, dose 400-2000 mg/kg, time 8 day
[9] = AUC (0 to t) in male Sprague-Dawley rat at 20 mg/kg, po administered as single dose and measured upto 24 hrs by LC-MS/MS analysis; type: ADME, organism-based; settings: in vivo
A549 = assay: Cytotoxicity against human A549 cells assessed as reduction in cell viability at 100 uM incubated for 24 hrs by CCK-8 assay; type: toxicity, cell-based; settings: a549, 24 h
[10] = AUC (0 to infinity) in male Sprague-Dawley rat at 20 mg/kg, po administered as single dose and measured upto 24 hrs by LC-MS/MS analysis; type: ADME, organism-based; settings: in vivo
[11] = AUC (0 to t) in male Sprague-Dawley rat at 10 mg/kg, iv administered as single dose and measured upto 24 hrs by LC-MS/MS analysis; type: ADME, organism-based; settings: in vivo
[12] = AUC (0 to infinity) in male Sprague-Dawley rat at 10 mg/kg, iv administered as single dose and measured upto 24 hrs by LC-MS/MS analysis; type: ADME, organism-based; settings: in vivo
[13] = MRT (0 to infinity) in male Sprague-Dawley rat at 20 mg/kg, po administered as single dose and measured upto 24 hrs by LC-MS/MS analysis; type: ADME, organism-based; settings: in vivo
[14] = Acute toxicity in ICR mouse assessed as kidney damage at 400 to 2000 mg/kg, po administered as single dose via oral gavage and measured on day 9; type: organism-based; settings: in vivo, 216 h, dose 400-2000 mg/kg, time 9 day
[15] = Acute toxicity in female ICR mouse assessed as effect on body weight at 400 to 2000 mg/kg, po administered as single dose via oral gavage and measured for 8 days; type: organism-based; settings: in vivo, 192 h, dose 400-2000 mg/kg, time 8 day
[16] = Acute toxicity in ICR mouse assessed as heart damage at 400 to 2000 mg/kg, po administered as single dose via oral gavage and measured on day 9; type: organism-based; settings: in vivo, 216 h, dose 400-2000 mg/kg, time 9 day
[17] = Metabolic stability in rat liver microsomes assessed as compound remaining at 1 uM measured after 60 mins by LC-MS/MS analysis; type: ADME, Microsome; settings: read-out: Stability
Staphylococcus aureus [18] = assay: Antibacterial activity against methicillin resistant Staphylococcus aureus ATCC 33591 measured after 15 passages; type: functional
[19] = Half life in male Sprague-Dawley rat at 20 mg/kg, po administered as single dose and measured upto 24 hrs by LC-MS/MS analysis; type: ADME, organism-based; settings: in vivo
[20] = biological target: Voltage-gated inwardly rectifying potassium channel KCNH2 (Homo sapiens, UniProt Q12809); assay: Inhibition of hERG expressed in CHO cells at -80 mV holding potential by manual patch clamp method; type: toxicity, cell-based
Sequence of Voltage-gated inwardly rectifying potassium channel KCNH2 (Q12809 whole entry): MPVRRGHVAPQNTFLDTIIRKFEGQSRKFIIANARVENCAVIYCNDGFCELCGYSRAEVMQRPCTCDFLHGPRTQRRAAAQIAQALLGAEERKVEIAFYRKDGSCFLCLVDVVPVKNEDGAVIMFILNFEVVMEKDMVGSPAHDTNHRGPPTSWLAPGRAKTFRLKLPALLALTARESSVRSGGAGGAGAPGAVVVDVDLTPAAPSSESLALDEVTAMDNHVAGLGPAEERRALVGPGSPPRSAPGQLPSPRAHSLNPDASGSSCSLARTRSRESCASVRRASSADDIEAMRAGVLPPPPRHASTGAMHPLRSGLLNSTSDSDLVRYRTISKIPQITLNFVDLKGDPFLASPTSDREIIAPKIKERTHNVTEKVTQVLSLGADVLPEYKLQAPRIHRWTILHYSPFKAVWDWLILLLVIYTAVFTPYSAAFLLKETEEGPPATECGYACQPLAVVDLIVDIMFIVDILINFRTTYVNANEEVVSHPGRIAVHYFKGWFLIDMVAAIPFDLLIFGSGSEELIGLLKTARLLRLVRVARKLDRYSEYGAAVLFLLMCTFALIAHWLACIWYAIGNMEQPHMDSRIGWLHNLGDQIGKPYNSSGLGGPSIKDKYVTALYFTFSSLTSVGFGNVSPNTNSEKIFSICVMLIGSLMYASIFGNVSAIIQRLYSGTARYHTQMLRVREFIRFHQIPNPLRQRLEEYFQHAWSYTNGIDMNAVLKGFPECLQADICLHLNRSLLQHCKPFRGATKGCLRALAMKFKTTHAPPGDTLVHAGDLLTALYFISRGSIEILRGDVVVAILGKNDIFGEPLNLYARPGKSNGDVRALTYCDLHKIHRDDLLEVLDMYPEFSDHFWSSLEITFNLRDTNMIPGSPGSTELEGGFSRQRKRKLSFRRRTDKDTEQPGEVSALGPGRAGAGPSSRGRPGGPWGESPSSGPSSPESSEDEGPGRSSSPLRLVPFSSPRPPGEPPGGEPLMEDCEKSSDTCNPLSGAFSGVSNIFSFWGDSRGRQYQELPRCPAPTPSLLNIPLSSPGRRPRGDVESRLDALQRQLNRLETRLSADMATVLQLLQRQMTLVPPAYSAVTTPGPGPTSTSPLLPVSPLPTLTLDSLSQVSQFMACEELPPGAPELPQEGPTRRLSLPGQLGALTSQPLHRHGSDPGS

[21] = Metabolic stability in rat liver microsomes assessed as drug elimination rate constant at 1 uM by LC-MS/MS analysis; type: ADME, Microsome
[22] = Metabolic stability in human liver microsomes assessed as compound remaining at 1 uM measured after 60 mins by LC-MS/MS analysis; type: ADME, Microsome; settings: read-out: Stability
[23] = Acute toxicity in ICR mouse assessed as liver damage at 400 to 2000 mg/kg, po administered as single dose via oral gavage and measured on day 9; type: organism-based; settings: in vivo, 216 h, dose 400-2000 mg/kg, time 9 day
[24] = Initial drug concentration in male Sprague-Dawley rat at 10 mg/kg, iv administered as single dose and measured upto 24 hrs by LC-MS/MS analysis; type: ADME, organism-based; settings: in vivo
[25] = Cmax in male Sprague-Dawley rat at 20 mg/kg, po administered as single dose and measured upto 24 hrs by LC-MS/MS analysis; type: ADME, organism-based; settings: in vivo
Escherichia coli = assay: Antibacterial activity against Escherichia coli ATCC 25922 incubated for 16 to 18 hrs by absorbance based analysis; type: functional; settings: time 16-18 hrs
[26] = Acute toxicity in ICR mouse assessed as animal death at 400 to 2000 mg/kg, po administered as single dose via oral gavage and measured for 8 days; type: organism-based; settings: in vivo, 192 h, dose 400-2000 mg/kg, time 8 day
HEK293 = assay: Cytotoxicity against HEK293 cells assessed as reduction in cell viability at 100 uM incubated for 24 hrs by CCK-8 assay; type: toxicity, cell-based; settings: human, hek293, 24 h
[27] = Metabolic stability in human liver microsomes assessed as microsomal intrinsic clearance at 1 uM by LC-MS/MS analysis; type: ADME, Microsome; settings: read-out: CLH
[28] = Half life in male Sprague-Dawley rat at 10 mg/kg, iv administered as single dose and measured upto 24 hrs by LC-MS/MS analysis; type: ADME, organism-based; settings: in vivo
[29] = Tmax in male Sprague-Dawley rat at 20 mg/kg, po administered as single dose and measured upto 24 hrs by LC-MS/MS analysis; type: ADME, organism-based; settings: in vivo
[30] = Metabolic stability in rat liver microsomes assessed as elimination half life at 1 uM by LC-MS/MS analysis; type: ADME, Microsome; settings: read-out: beta t1/2
[31] = Acute toxicity in ICR mouse assessed as brain damage at 400 to 2000 mg/kg, po administered as single dose via oral gavage and measured on day 9; type: organism-based; settings: in vivo, 216 h, dose 400-2000 mg/kg, time 9 day
[32] = Acute toxicity in ICR mouse assessed as lung damage at 400 to 2000 mg/kg, po administered as single dose via oral gavage and measured on day 9; type: organism-based; settings: in vivo, 216 h, dose 400-2000 mg/kg, time 9 day
[33] = MRT (0 to infinity) in male Sprague-Dawley rat at 10 mg/kg, iv administered as single dose and measured upto 24 hrs by LC-MS/MS analysis; type: ADME, organism-based; settings: in vivo
[34] = MRT (0 to t) in male Sprague-Dawley rat at 20 mg/kg, po administered as single dose and measured upto 24 hrs by LC-MS/MS analysis; type: ADME, organism-based; settings: in vivo
Staphylococcus aureus [35] = assay: Antibacterial activity against fluoroquinolone-sensitive methicillin resistant Staphylococcus aureus USA500 incubated for 16 to 18 hrs by absorbance based analysis; type: functional; settings: time 16-18 hrs
[36] = Acute toxicity in ICR mouse assessed as effect on food intake at 400 to 2000 mg/kg, po administered as single dose via oral gavage and measured for 8 days; type: organism-based; settings: in vivo, 192 h, dose 400-2000 mg/kg, time 8 day
[37] = Acute toxicity in male ICR mouse assessed as effect on body weight at 400 to 2000 mg/kg, po administered as single dose via oral gavage and measured for 8 days; type: organism-based; settings: in vivo, 192 h, dose 400-2000 mg/kg, time 8 day
[38] = Metabolic stability in rat liver microsomes assessed as microsomal intrinsic clearance at 1 uM by LC-MS/MS analysis; type: ADME, Microsome; settings: read-out: CLH
[39] = Oral bioavailability in male Sprague-Dawley rat at 20 mg/kg administered as single dose and measured upto 24 hrs by LC-MS/MS analysis; type: ADME, organism-based; settings: in vivo
[40] = MRT (0 to t) in male Sprague-Dawley rat at 10 mg/kg, iv administered as single dose and measured upto 24 hrs by LC-MS/MS analysis; type: ADME, organism-based; settings: in vivo
[41] = Acute toxicity in ICR mouse assessed as spleen damage at 400 to 2000 mg/kg, po administered as single dose via oral gavage and measured on day 9; type: organism-based; settings: in vivo, 216 h, dose 400-2000 mg/kg, time 9 day

O=C(O)c1cn(C2CC2)c2cc(Nc3nccc(Cc4ccc(F)cc4F)n3)ccc2c1=O
CLint scaled at 1 µM [1]: 29.1 mL/min/kg | CLint scaled at 1 µM [2]: 60.9 mL/min/kg | MIC (Staphylococcus aureus [3]): 0.39 µg/mL (≈ 0.87 µM) | half-life at 1 µM [4]: 45 min | k el at 1 µM [5]: 0.00025 s⁻¹ | MIC (Staphylococcus aureus [6]): 0.25 µg/mL (≈ 0.558 µM) | clearance [7]: 18.5 mL/min/kg | Activity [8]: Non-Toxic | AUC(0-t) at 24 h [9]: 162 ng·h/mL | Activity (A549): Non-Toxic | AUC(0-inf) [10]: 171 ng·h/mL | AUC(0-t) at 24 h [11]: 9060 ng·h/mL | AUC(0-inf) [12]: 9100 ng·h/mL | MRT inf [13]: 4.2 h | Activity [14]: Non-Toxic | Activity [15]: Non-Toxic | Activity [16]: Non-Toxic | remaining at 1 h, 1 µM [17]: 35.7% | MIC (Staphylococcus aureus [18]): 0.25 µg/mL (≈ 0.558 µM) | half-life [19]: 130 min | IC50 [20]: > 40 µM | k el at 1 µM [21]: 0.000283 s⁻¹ | remaining at 1 h, 1 µM [22]: 40.9% | Activity [23]: Non-Toxic | C0 at 24 h [24]: 11800 ng/mL | Cmax [25]: 31 ng/mL | MIC (Escherichia coli): > 64 µg/mL | Activity [26]: Non-Toxic | Activity (HEK293): Non-Toxic | microsomal CLint at 1 µM [27]: 30.8 µL/min/mg | half-life [28]: 254 min | Tmax [29]: 2.67 h | half-life at 1 µM [30]: 41 min | Activity [31]: Non-Toxic | Activity [32]: Non-Toxic | MRT inf [33]: 1.2 h | MRT last at 24 h [34]: 3.51 h | MIC (Staphylococcus aureus [35]): 0.39 µg/mL (≈ 0.87 µM) | Activity [36]: Non-Toxic | Activity [37]: Non-Toxic | microsomal CLint at 1 µM [38]: 33.8 µL/min/mg | bioavailability [39]: 0.9% | MRT last at 24 h [40]: 1.01 h | Activity [41]: Non-Toxic
